Here are results for 8 compounds from patent US11952364B2, “TRK inhibitors useful as anticancer drugs” (TYLIGAND BIOSCIENCE (SHANGHAI) LIMITED, priority 2018, dated 2024).

This assay concerns Ba/F3 ETV6-NTRK2-G639R cells. The experiment in a line: Proliferation of Ba/F3 ETV6-NTRK2-G639R cells (CellTiter-Glo). The format is cell-based. The following applies: Mus musculus, BaF3; Table 6; 72 hours. The source says: Ba/F3 ETV6-NTRK2-G639R is a stable transgenic cell line constructed by KYinno Biotechnology Co., Ltd. on mouse primary B cell Ba/F3 wherein NTRK2 is highly expressed with a mutation of G at position 639 to R, and fused with ETV6 to form ETV6-NTRK2. • [Test method]: Promega's CellTiter-Glo® Luminescent Cell Viability Assay kit was used to evaluate the inhibitory activity of the compounds on the proliferation of Ba/F3 ETV6-NTRK2-G639R cells. • [Instrument]: Spectramax M3 multifunctional microplate reader from Molecular Devices. • [Test materials]: Ba/F3 ETV6-NTRK2-G639R cell line (constructed by KYinno Biotechnology Co., Ltd. (Beijing)), 96-well transparent flat-bottomed black-walled cell culture plate (Corning, catalog #3603), RPMI-1640 media (GE, cat #SH30027.01), fetal bovine serum FBS (Thermo Fisher, cat #10099-141), CellTiter-Glo® Luminescent Cell Viability Assay kit (Promega, cat #G7572), PBS (Solarbio, cat #P1020), DMSO (Sigma, cat #D2650). • [Experimental procedure]: When resuscitating Ba/F3 ETV6-NTRK2-G639R cells, the freezing tube was quickly shaken in a 37° C. water bath to melt within 1 minute. The thawed cell suspension was mixed uniformly with RPMI1640 medium containing 10% FBS, centrifuged at 1000 rpm for 5 minutes, and the supernatant discarded. 5 mL of complete medium (RPMI1640 medium with 10% FBS) was taken to resuspend the cell pellets, charged into a cell culture flask with a bottom area of 25 cm^2, and incubated in a cell incubator at 37° C., 95% humidity and 5% CO2. Cells were allowed to passage when the number of cells reached about 10^6 cells/mL. For cell passage, the old cell suspension was directly pipetted evenly, 1/5 of the cell suspension was kept, 4 mL of new complete medium was added, after pipetting evenly, the cell flask was placed in the cell incubator for further culturing. Cell plating was performed when the number of cells reached about 10^6 cells/mL again. For cell plating, 1/5 of the cell suspension was kept for further culturing as in the cell passage method, and the remaining 4/5 of the cell suspension was placed in a 15 mL centrifuge tube, detected for cell viability by Trypan blue exclusion method to ensure that cell viability was above 90%. A cell suspension with a density of 5.56×10^4 viable cells/mL was prepared with complete medium, and 90 μL of such cell suspension was added to a 96-well cell culture plate to obtain the cell density of 5000 viable cells/mL in the cell culture plate. A control group containing no cells, no compound and only complete medium (i.e. culture medium control) and a control group containing no compound but containing cells (i.e. cell control) were set. The cell plate was placed in a cell incubator overnight. The 10 mM compound stock solution in DMSO was first serially diluted with DMSO at a dilution factor of 3.16 times, to obtain 9 concentrations, and the 10th concentration was set as DMSO control without compound. Then, PBS was used to dilute the DMSO solutions of compounds of different concentrations, at a dilution factor of 100 times, so that the DMSO concentration in the compound solution of each concentration was 1%. Finally, 10 μL of each of the above solutions was added to the corresponding cell culture plate, so that the initial compound concentration was 10 μM, with the remaining concentrations being successively diluted at a dilution factor of 3.16 times, and the DMSO content in the cell culture plate was 0.1%. The cell plate was placed in a cell incubator and cultured for 72 hours. For endpoint detection, the CellTiter-Glo reagent was melted, and the cell plate was moved to room temperature to equilibrate for 30 minutes, added with 100 μL of CellTiter-Glo for each well, and shaken on an orbital shaker for 5 minutes to fully lyse the cells. The plate was kept at room temperature for 20 minutes to stabilize the luminescence signal, and the luminescence value of each well was scanned with a multi-functional microplate reader at full wavelength. • [Test samples] […]

Each structure is given as a SMILES string.

`Cn1ncc2cc(Oc3ccc(NC(=O)c4ccc(C(F)(F)F)n(-c5ccc(F)cc5)c4=O)cc3F)c(-c3cn[nH]c3)cc21` [Example 1, N-(3-fluoro-4-(1-methyl-6-(1H-pyrazol-4-yl)-1H-indazol-5-yloxy)phenyl)-1-(4-fluorophenyl)-6-trifluoromethyl-2-oxo-1,2-dihydmpyridine-3-carboxamide monomethanesulfonate] gave an IC50 of 3.12 µM. Regarding `Cn1ncc2cc(Oc3ccc(NC(=O)c4ccc(C5CC5)n(-c5ccc(F)cc5)c4=O)cc3F)c(-c3cn[nH]c3)cc21` [Example 2, N-(3-fluoro-4-(1-methyl-6-(1H-pyrazol-4-yl)-1H-indazol-5-yloxy)phenyl)-1-(4-fluorophenyl)-6-cyclopropyl-2-oxo-1,2-dihydmpyridine-3-carboxamide], the concentration for half-maximal inhibition (IC50) amounted to 1.88 µM.

For the compound `CCn1ncc2cc(Oc3ccc(NC(=O)c4ccc(C)n(-c5ccc(F)cc5)c4=O)cc3F)c(-c3cn[nH]c3)cc21` [Example 3, N-(3-fluoro-4-(1-ethyl-6-(1H-pyrazol-4-yl)-1H-indazol-5-yloxy)phenyl)-1-(4-fluorophenyl)-6-methyl-2-oxo-1,2-dihydmpyridine-3-carboxamide], inhibition was half-maximal at 9.87 µM (IC50). As for `Cc1ccc(C(=O)Nc2ccc(Oc3cc4cnn(C(C)C)c4cc3-c3cn[nH]c3)c(F)c2)c(=O)n1-c1ccc(F)cc1` [Example 4, N-(3-fluoro-4-(1-isopropyl-6-(1H-pyrazol-4-yl)-1H-indazol-5-yloxy)phenyl)-1-(4-fluorophenyl)-6-methyl-2-oxo-1,2-dihydmpyridine-3-carboxamide], the figure is > 10 µM; as for `CCc1ccc(C(=O)Nc2ccc(Oc3cc4cnn(C)c4cc3-c3cn[nH]c3)c(F)c2)c(=O)n1-c1ccc(F)cc1` [Example 5, N-(3-fluoro-4-(1-methyl-6-(1H-pyrazol-4-yl)-1H-indazol-5-yloxy)phenyl)-1-(4-fluorophenyl)-6-ethyl-2-oxo-1,2-dihydropyridine-3-carboxamide], 2.69 µM; as for `CC(C)c1ccc(C(=O)Nc2ccc(Oc3cc4cnn(C)c4cc3-c3cn[nH]c3)c(F)c2)c(=O)n1-c1ccc(F)cc1` [Example 6, N-(3-fluoro-4-(1-methyl-6-(1H-pyrazol-4-yl)-1H-indazol-5-yloxy)phenyl)-1-(4-fluorophenyl)-6-isopropyl-2-oxo-1,2-dihydropyridine-3-carboxamide], 2.79 µM. As for `O=C(Nc1cnn2ccc(N3CCC[C@@H]3c3cc(F)ccc3F)nc12)N1CC[C@H](O)C1` [LOXO-101, Larotrectinib, reference compound], the figure is > 10 µM; as for `Cc1ccc(C(=O)Nc2ccc(Oc3cc4cnn(C)c4cc3-c3cn[nH]c3)c(F)c2)c(=O)n1-c1ccc(F)cc1` [Merestinib, reference compound], 3.04 µM.
